Reference: the supplement of paper PMC10307832

Legend:
Test in all cases: relative viability (nuclei count vs DMSO), 5 days (fraction); higher = more cells survive
[1] = tested on: NCI-H2023
How it was run: (§1)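 Five library-drug doses in √10 steps were combined with a fixed anchor-drug dose, or a single drug was given alone, by pin tool to lung cancer cell lines in 1536-well plates the day after seeding. Nuclei were stained and counted after 5 days. Relative viability is the nuclei count in treated wells over that in vehicle wells, taken as the median of duplicate plates.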

[2] = tested on: NCI-H1993
How it was run: as §1

[3] = tested on: NCI-H650
How it was run: as §1

[4] = tested on: NCI-H1395
How it was run: as §1

[5] = tested on: LOU-NH91
How it was run: as §1

[6] = tested on: NCI-H1975
How it was run: as §1

[7] = tested on: NCI-H2228
How it was run: as §1

[8] = tested on: NCI-H2405
How it was run: as §1

[9] = tested on: LU99A
How it was run: as §1

[10] = tested on: NCI-H460
How it was run: as §1

[11] = tested on: SW 1573
How it was run: as §1

[12] = tested on: NCI-H1915
How it was run: as §1

[13] = tested on: A-427
How it was run: as §1

[14] = tested on: HARA
How it was run: as §1

[15] = tested on: RERF-LC-KJ
How it was run: as §1

[16] = tested on: EKVX
How it was run: as §1

[17] = tested on: BEN
How it was run: as §1

[18] = tested on: NCI-H1793
How it was run: as §1

[19] = tested on: COR-L23
How it was run: as §1

[20] = tested on: NCI-H838
How it was run: as §1

[21] = tested on: NCI-H1650
How it was run: as §1

[22] = tested on: NCI-H1666
How it was run: as §1

Work on `COCC1(CO)C(=O)C2CCN1CC2` (stereo not drawn) [PRIMA-1MET] + CC(=O)c1c(C)c2cnc(Nc3ccc(N4CCNCC4)cn3)nc2n(C2CCCC2)c1=O [Palbociclib] (partner 0.5 µM) yielded a relative viability ([1]; first compound 0.2 µM) of 0.352, a relative viability ([1]; first compound 0.6325 µM) of 0.379 and a relative viability ([1]; first compound 2 µM) of 0.422. For the same compound, the relative viability ([1]; first compound 6.325 µM) was 0.365, the relative viability ([1]; first compound 20 µM) was 0.295 and the relative viability ([2]; first compound 0.2 µM) was 0.668. It also gave a relative viability ([2]; first compound 2 µM) of 0.715, a relative viability ([2]; first compound 6.325 µM) of 0.698 and a relative viability ([2]; first compound 20 µM) of 0.703. For the same compound, the relative viability ([3]; first compound 0.2 µM) was 0.317, the relative viability ([3]; first compound 0.6325 µM) was 0.289 and the relative viability ([3]; first compound 2 µM) was 0.367. The relative viability ([3]; first compound 6.325 µM) was 0.338, the relative viability ([3]; first compound 20 µM) was 0.0905 and the relative viability ([4]; first compound 0.2 µM) was 0.665. For the same compound, the relative viability ([4]; first compound 2 µM) was 0.641, the relative viability ([4]; first compound 6.325 µM) was 0.656 and the relative viability ([4]; first compound 20 µM) was 0.578. For the same compound, the relative viability ([5]; first compound 0.2 µM) was 0.507, the relative viability ([5]; first compound 0.6325 µM) was 0.514 and the relative viability ([5]; first compound 2 µM) was 0.54. For the same compound, the relative viability ([5]; first compound 6.325 µM) was 0.508, the relative viability ([5]; first compound 20 µM) was 0.452 and the relative viability ([6]; first compound 0.2 µM) was 0.513. For the same compound, the relative viability ([6]; first compound 0.6325 µM) was 0.483, the relative viability ([6]; first compound 2 µM) was 0.409 and the relative viability ([6]; first compound 6.325 µM) was 0.693. The relative viability ([6]; first compound 20 µM) was 0.582, the relative viability ([7]; first compound 0.2 µM) was 0.631 and the relative viability ([7]; first compound 0.6325 µM) was 0.778. For the same compound, the relative viability ([7]; first compound 2 µM) was 0.742, the relative viability ([7]; first compound 6.325 µM) was 0.402 and the relative viability ([7]; first compound 20 µM) was 0.0392. The relative viability ([8]; first compound 0.2 µM) was 0.487, the relative viability ([8]; first compound 0.6325 µM) was 0.539 and the relative viability ([8]; first compound 6.325 µM) was 0.518. For the same compound, the relative viability ([8]; first compound 20 µM) was 0.24, the relative viability ([9]; first compound 0.2 µM) was 0.43 and the relative viability ([9]; first compound 0.6325 µM) was 0.414. The relative viability ([9]; first compound 2 µM) was 0.414, the relative viability ([9]; first compound 6.325 µM) was 0.349 and the relative viability ([9]; first compound 20 µM) was 0.225. It also gave a relative viability ([10]; first compound 0.2 µM) of 0.153, a relative viability ([10]; first compound 0.6325 µM) of 0.139 and a relative viability ([10]; first compound 2 µM) of 0.168. For the same compound, the relative viability ([10]; first compound 6.325 µM) was 0.114, the relative viability ([10]; first compound 20 µM) was 0.0061 and the relative viability ([11]; first compound 0.2 µM) was 0.456. It also gave a relative viability ([11]; first compound 0.6325 µM) of 0.317, a relative viability ([11]; first compound 2 µM) of 0.345 and a relative viability ([11]; first compound 6.325 µM) of 0.0953. For the same compound, the relative viability ([11]; first compound 20 µM) was 0.0194, the relative viability ([12]; first compound 0.2 µM) was 0.507 and the relative viability ([12]; first compound 0.6325 µM) was 0.496. For the same compound, the relative viability ([12]; first compound 2 µM) was 0.451, the relative viability ([12]; first compound 6.325 µM) was 0.518 and the relative viability ([12]; first compound 20 µM) was 0.523. It also gave a relative viability ([13]; first compound 0.2 µM) of 0.574, a relative viability ([13]; first compound 0.6325 µM) of 0.523 and a relative viability ([13]; first compound 2 µM) of 0.576. It also gave a relative viability ([13]; first compound 6.325 µM) of 0.49, a relative viability ([13]; first compound 20 µM) of 0.525 and a relative viability ([14]; first compound 0.2 µM) of 0.252. It also gave a relative viability ([14]; first compound 0.6325 µM) of 0.318, a relative viability ([14]; first compound 6.325 µM) of 0.286 and a relative viability ([14]; first compound 20 µM) of 0.261. It also gave a relative viability ([15]; first compound 0.2 µM) of 1.13, a relative viability ([15]; first compound 0.6325 µM) of 1.13 and a relative viability ([15]; first compound 2 µM) of 0.978. For the same compound, the relative viability ([15]; first compound 6.325 µM) was 1.08, the relative viability ([15]; first compound 20 µM) was 1.04 and the relative viability ([16]; first compound 0.2 µM) was 0.42. It also gave a relative viability ([16]; first compound 2 µM) of 0.346, a relative viability ([16]; first compound 6.325 µM) of 0.368 and a relative viability ([16]; first compound 20 µM) of 0.321. It also gave a relative viability ([17]; first compound 0.2 µM) of 0.46, a relative viability ([17]; first compound 0.6325 µM) of 0.463 and a relative viability ([17]; first compound 6.325 µM) of 0.463. The relative viability ([17]; first compound 20 µM) was 0.437, the relative viability ([18]; first compound 0.2 µM) was 0.326 and the relative viability ([18]; first compound 0.6325 µM) was 0.32. The relative viability ([18]; first compound 6.325 µM) was 0.332, the relative viability ([18]; first compound 20 µM) was 0.331 and the relative viability ([19]; first compound 0.2 µM) was 0.291. For the same compound, the relative viability ([19]; first compound 0.6325 µM) was 0.191, the relative viability ([19]; first compound 2 µM) was 0.251 and the relative viability ([19]; first compound 6.325 µM) was 0.353. It also gave a relative viability ([19]; first compound 20 µM) of 0.0222, a relative viability ([20]; first compound 0.2 µM) of 0.261 and a relative viability ([20]; first compound 0.6325 µM) of 0.188. For the same compound, the relative viability ([20]; first compound 2 µM) was 0.207, the relative viability ([20]; first compound 6.325 µM) was 0.22 and the relative viability ([20]; first compound 20 µM) was 0.232. The relative viability ([21]; first compound 0.2 µM) was 0.322, the relative viability ([21]; first compound 0.6325 µM) was 0.331 and the relative viability ([21]; first compound 2 µM) was 0.317. For the same compound, the relative viability ([21]; first compound 6.325 µM) was 0.315, the relative viability ([21]; first compound 20 µM) was 0.0802 and the relative viability ([22]; first compound 0.2 µM) was 0.69. The relative viability ([22]; first compound 0.6325 µM) was 0.647, the relative viability ([22]; first compound 2 µM) was 0.614 and the relative viability ([22]; first compound 6.325 µM) was 0.699. For the same compound, the relative viability ([22]; first compound 20 µM) was 0.695.
